Patent publication US20240197823A1, “CATIONIC ANTIMICROBIAL PEPTIDES AND USES THEREOF” (priority 2021, published 2024)
Converted amounts (≈) assume the structure as drawn. Like-named read-outs stand apart in the source and are kept apart here. Positions of bridges follow the written chain, without caps; N, C: chain ends. Non-standard residues stand in square brackets, D forms with d. Residues, ends and D or L forms follow the SMILES beside them. No end group written: not given here. *: point of attachment. Heptanoyl(5-Me) = CCC(C)CCCC(=O)*; Dab = NCC[C@H](N)C(=O)O

Assays:
[1] = Mouse toxicity, maximum tolerated dose; type: in vivo, CD-1 mice
Method: Mouse toxicity. For all animal experiments, the protocol #18071776 approved by the Institutional Animal Care and Use Committee (IACUC) of the University of Pittsburgh was used, which is consistent with the NIH guide for the care and use of laboratory animals. In a preliminary (pilot) experiment, female CD-1 mice (3 per group) weighing about 20 g were injected different doses of peptides up to 45 mpk via a lateral tail vein (IV) to determine an MTD (dose that results in no apparent morbidity or mortality). To confirm the MTD determined in the pilot study, CD-1 mice (7 per group) were randomized to receive a dose based on the preliminary MTD (IV) or PBS (100 μL). The animals were monitored for up to 7 days for morbidity and survival.

Enterobacter spp = assay: MIC growth inhibition assay in MHB2; type: cell-based, Enterobacter spp: EA (aerogenes), EC (cloacae)
Method: (§1) Bacteria. Bacterial clinical isolates, used for initial screening and in previous studies [Greber K E et al., 2017], were anonymously provided by the clinical microbiology laboratory of the University of Pittsburgh medical Center. The panel used for secondary screening was from CDC (Table 4), with resistance profiles data. Bacteria are stored in lock-secured −80° C. freezer and typically retrieved by obtaining single colonies on agar plates prior for subsequent liquid broth cultures. Suspensions of test bacteria were prepared from log phase of growth by diluting overnight cultures at 1:100 with fresh cation-adjusted MHB (MHB2, Millipore Sigma, USA) and incubating for additional 3-4 hours. Bacteria were spun at 3000×g for 10 minutes and the pellet resuspended in test condition media (Millipore Sigma, USA) to determine bacterial turbidity using a Den-1B densitometer (Grant Instruments, USA) at 0.5 McFarland (unit of bacterial density) corresponding to […].
(§2) Antibacterial assays. To examine antibacterial activity, this study used minor modifications of a standard growth inhibition assay endorsed by the Clinical and Laboratory Standards Institute (CLSI), as previously described [Greber K E et al., 2017]. Bacteria were incubated with each of the indicated peptides in MHB2. The bacterial cells were kept in an incubator for 18 hours at 37° C., which is linked to a robotic system that feeds a plate reader every hour with one of 8×96-well plates. This set-up allows the collection of growth kinetic data at A 570 (absorbance at 570 nm) to examine growth inhibition in real time (BioTek Instruments, USA). […] To assess bactericidal properties of the peptide, the assay was modified by using 15% fetal bovine serum (FBS, for a more physiologically relevant test condition) mixed with 25% MHB2 and 60% PBS. Bacterial cells (colony forming unit/mL or CFU/mL) were enumerated after incubating treated bacteria for 3 hours and plating serially diluted samples on broth agar medium at 37° C. overnight. […] For killing kinetics, we slightly modified the bactericidal assay to examine bacterial killing at the MBC (or 2×MBC) as a function of time for up to 3 hours. Data were analyzed using GraphPad Prism software.

E. Faecium = assay: MIC growth inhibition assay in MHB2; type: cell-based, Enterococcus faecium; details: MHB2
Method: as §1, §2

[2] = system: MDR panel of gram-negative (GNB) and -positive (GPB) bacterial isolates classified as ESKAPE pathogens
Method: as §1
Antibacterial assays. To examine antibacterial activity, this study used minor modifications of a standard growth inhibition assay endorsed by the Clinical and Laboratory Standards Institute (CLSI), as previously described [Greber K E et al., 2017]. Bacteria were incubated with each of the indicated peptides in MHB2. The bacterial cells were kept in an incubator for 18 hours at 37° C., which is linked to a robotic system that feeds a plate reader every hour with one of 8×96-well plates. This set-up allows the collection of growth kinetic data at A 570 (absorbance at 570 nm) to examine growth inhibition in real time (BioTek Instruments, USA). […] To assess bactericidal properties of the peptide, the assay was modified by using 15% fetal bovine serum (FBS, for a more physiologically relevant test condition) mixed with 25% MHB2 and 60% PBS. Bacterial cells (colony forming unit/mL or CFU/mL) were enumerated after incubating treated bacteria for 3 hours and plating serially diluted samples on broth agar medium at 37° C. overnight. […] Data were analyzed using GraphPad Prism software.

K. pneumoniae = assay: MIC growth inhibition assay in MHB2; type: cell-based, klebsiella pneumoniae
Method: as §1, §2

S. aureus = assay: MIC growth inhibition assay in MHB2; type: cell-based, Staphylococcus aureus; details: MHB2
Method: as §1, §2

A. baumannii = assay: microbe, parasite or virus in culture
Method: as §1, §2

E. coli = assay: microbe, parasite or virus in culture
Method: as §1, §2

P. aeruginosa = assay: microbe, parasite or virus in culture
Method: as §1, §2

[3] = system: MDR clinical strains of ESKAPE pathogens and E. coli provided by the CDC (AR isolates panel); assay: Advanced testing, MIC against CDC AR isolates panel; type: cell-based; details: colistin-resistant strains
Method: as §1, §2

## RRVWRWVRRVWRWVRR [E35]
[1]; 7 mice, systemically at 30 mpk
  morbidity and mortality: no apparent morbidity and mortality
[1]; CD-1 mice, tail vein (IV)
  maximum tolerated dose, MTD: 30 mpk

## CCC(C)CCCC(=O)N[C@@H](CCN)C(=O)N[C@H](C(=O)N[C@@H](CCN)C(=O)N[C@H]1CCNC(=O)[C@H]([C@@H](C)O)NC(=O)[C@H](CCN)NC(=O)[C@H](CCN)NC(=O)[C@H](CC(C)C)NC(=O)[C@@H](CC(C)C)NC(=O)[C@H](CCN)NC1=O)[C@@H](C)O (stereo partly drawn) [Colistin, colistin, reference compound] ({Heptanoyl(5-Me)}-[Dab]T[Dab][Dab][Dab][dL]L[Dab][Dab]T; lactam 4-C)
Enterobacter spp; Enterobacter, strain EA62 (aerogenes), CDC, MHB2
  MIC: 2 µM (≈ 2.31 µg/mL)
Enterobacter spp; Enterobacter, strain EA547 (aerogenes), CDC, MHB2
  MIC: 0.25 µM (≈ 0.289 µg/mL)
Enterobacter spp; Enterobacter, strain EC544 (cloacae), CDC, MHB2
  MIC: 4 µM (≈ 4.62 µg/mL)
Enterobacter spp; Enterobacter, strain EC545 (cloacae), CDC, MHB2
  MIC: 2 µM (≈ 2.31 µg/mL)
E. Faecium; Enterococcus faecium, strain EF673, CDC
  MIC: > 16 µM
E. Faecium; strain EF500, CDC
  MIC: >16 µM
E. Faecium; strain EF671, CDC
  MIC: >16 µM
E. Faecium; strain EF672, CDC
  MIC: >16 µM
[2]; GNB and GPB of the initial MDR panel, MHB2
  mean MIC: lowest mean MIC
[2]; GPB strains of the initial MDR panel (Table 5)
  activity against the GPB strains: inactive
K. pneumoniae; Klebsiella pneumoniae, colistin-resistant CDC AR isolate KP46, read-out: MIC
  MIC: 4 µM (≈ 4.62 µg/mL)
K. pneumoniae; Klebsiella pneumoniae, colistin-resistant CDC AR isolate KP87, read-out: MIC
  MIC: > 16 µM
K. pneumoniae; Klebsiella pneumoniae, colistin-resistant CDC AR isolate KP125, read-out: MIC
  MIC: 8 µM (≈ 9.24 µg/mL)
K. pneumoniae; Klebsiella pneumoniae, colistin-resistant CDC AR isolate KP507, read-out: MIC
  MIC: 16 µM (≈ 18.5 µg/mL)
K. pneumoniae; Klebsiella pneumoniae, colistin-resistant CDC AR isolate KP1010, read-out: MIC
  MIC: 16 µM (≈ 18.5 µg/mL)
K. pneumoniae; Klebsiella pneumoniae, colistin-resistant CDC AR isolate KP1041, read-out: MIC
  MIC: > 16 µM
K. pneumoniae; Klebsiella pneumoniae, colistin-resistant CDC AR isolate KP1045, read-out: MIC
  MIC: > 16 µM
K. pneumoniae; Klebsiella pneumoniae, strain KP542, CDC, MHB2, read-out: MIC
  MIC: > 16 µM
K. pneumoniae; Klebsiella pneumoniae, strain KP548, CDC, MHB2, read-out: MIC
  MIC: 0.25 µM (≈ 0.289 µg/mL)
K. pneumoniae; Klebsiella pneumoniae, strain KP550, CDC, MHB2, read-out: MIC
  MIC: 0.25 µM (≈ 0.289 µg/mL)
K. pneumoniae; Klebsiella pneumoniae, strain KP552, CDC, MHB2, read-out: MIC
  MIC: 0.25 µM (≈ 0.289 µg/mL)
K. pneumoniae; strain KPA5, initial MDR panel (Table 5)
  MIC: colistin-resistant phenotype
S. aureus; Staphylococcus aureus, strain SA461, CDC
  MIC: > 16 µM
S. aureus; strain SA462, CDC
  MIC: >16 µM
S. aureus; strain SA463, CDC
  MIC: >16 µM
S. aureus; strain SA561, CDC
  MIC: >16 µM
A. baumannii; Acinetobacter baumannii, CDC AR isolate AB288 (colistin resistance not confirmed)
  MIC: 1 µM (≈ 1.16 µg/mL)
A. baumannii; Acinetobacter baumannii, CDC AR isolate AB300 (colistin resistance not confirmed)
  MIC: 1 µM (≈ 1.16 µg/mL)
A. baumannii; Acinetobacter baumannii, CDC AR isolate AB301 (colistin resistance not confirmed)
  MIC: 1 µM (≈ 1.16 µg/mL)
A. baumannii; Acinetobacter baumannii, CDC AR isolate AB303 (colistin resistance not confirmed)
  MIC: 0.5 µM (≈ 0.578 µg/mL)
A. baumannii; Acinetobacter baumannii, strain AB273, CDC, MHB2
  MIC: 0.5 µM (≈ 0.578 µg/mL)
A. baumannii; Acinetobacter baumannii, strain AB274, CDC, MHB2
  MIC: 0.25 µM (≈ 0.289 µg/mL)
A. baumannii; Acinetobacter baumannii, strain AB275 (first line r9), CDC, MHB2
  MIC: 0.25 µM (≈ 0.289 µg/mL)
A. baumannii; Acinetobacter baumannii, strain AB275 (second line r10), CDC, MHB2
  MIC: 0.5 µM (≈ 0.578 µg/mL)
E. coli; Escherichia coli, strain Eco541, CDC, MHB2
  MIC: 1 µM (≈ 1.16 µg/mL)
E. coli; Escherichia coli, strain Eco543, CDC, MHB2
  MIC: 8 µM (≈ 9.24 µg/mL)
E. coli; Escherichia coli, strain Eco546, CDC, MHB2
  MIC: 0.25 µM (≈ 0.289 µg/mL)
E. coli; Escherichia coli, strain Eco549, CDC, MHB2
  MIC: 1 µM (≈ 1.16 µg/mL)
P. aeruginosa; Pseudomonas aeruginosa, strain PA216, CDC, MHB2
  MIC: 1 µM (≈ 1.16 µg/mL)
P. aeruginosa; Pseudomonas aeruginosa, strain PA229, CDC, MHB2
  MIC: > 16 µM
P. aeruginosa; Pseudomonas aeruginosa, strain PA230, CDC, MHB2
  MIC: 1 µM (≈ 1.16 µg/mL)
P. aeruginosa; Pseudomonas aeruginosa, strain PA231, CDC, MHB2
  MIC: 1 µM (≈ 1.16 µg/mL)

## RRWVRWVRRWVRWVRR [E80]
P. aeruginosa
  MIC: 2 µM

## RVWRRVRRVWRRVRRVWRRV [E69]
P. aeruginosa
  MIC: 2 µM

## C[C@@H](O)[C@H]1C(=O)N2C(C(=O)O)=C(S[C@@H]3CN[C@H](C(=O)N(C)C)C3)[C@H](C)[C@H]12 [Mero]
Enterobacter spp; strain EA518 (aerogenes)
  MIC: >16 µM
Enterobacter spp; strain EA596 (aerogenes)
  MIC: 16 µM (≈ 6.14 µg/mL)
Enterobacter spp; strain EC470 (cloacae)
  MIC: >16 µM
Enterobacter spp; strain EC560 (cloacae)
  MIC: 16 µM (≈ 6.14 µg/mL)
K. pneumoniae; strain KP43816, read-out: MIC
  MIC: 1 µM (≈ 0.383 µg/mL)
K. pneumoniae; strain KPA5, read-out: MIC
  MIC: 2 µM (≈ 0.767 µg/mL)
K. pneumoniae; strain KPB3, read-out: MIC
  MIC: 2 µM (≈ 0.767 µg/mL)
K. pneumoniae; strain KPC3, read-out: MIC
  MIC: 1 µM (≈ 0.383 µg/mL)
A. baumannii; strain AB-A2
  MIC: 4 µM (≈ 1.53 µg/mL)
A. baumannii; strain AB-A3
  MIC: >16 µM
A. baumannii; strain AB-F8
  MIC: 8 µM (≈ 3.07 µg/mL)
A. baumannii; strain AB-F9
  MIC: 8 µM (≈ 3.07 µg/mL)
E. coli; strain Eco25922
  MIC: 0.5 µM (≈ 0.192 µg/mL)
E. coli; strain YDC107
  MIC: 1 µM (≈ 0.383 µg/mL)
E. coli; strain YDC337
  MIC: 8 µM (≈ 3.07 µg/mL)
E. coli; strain YDC748
  MIC: 8 µM (≈ 3.07 µg/mL)

## RRVWRRVRRVWRRVRRVVRRVW [E71]
[3]
  cross-resistance with colistin: no cross-resistance at all
E. coli
  MIC: 1 µM

## CC(C)C[C@H](NC(=O)[C@H](Cc1ccccc1)NC(=O)[C@@H]1CCCN1C(=O)[C@H](Cc1c[nH]c2ccccc12)NC(=O)[C@H](Cc1c[nH]c2ccccc12)NC(=O)[C@H](Cc1c[nH]c2ccccc12)NC(=O)[C@@H]1CCCN1C(=O)[C@H](Cc1ccccc1)NC(=O)[C@H](CCCNC(=N)N)NC(=O)[C@H](CCCNC(=N)N)NC(=O)[C@@H](N)C(C)C)C(=O)N[C@@H](CCCNC(=N)N)C(=O)N[C@@H](CCCNC(=N)N)C(=O)O [tritrpticin]
[2]
  mean MIC: > 10 µM

## RWVRRVRRWVRRVRRWVRRV [E68]
[3]
  cross-resistance with colistin: no cross-resistance at all
